This passage reports inhibition and fold change (FC) results from ChEMBL document CHEMBL3112551, “Synthesis of 2H-1,3-benzoxazin-4(3H)-one derivatives containing indole moiety: their in vitro evaluation against PDE4B” (Bioorg Med Chem Lett, 2014).

Active and inactive are the calls of the source. No cut-off for these calls is given here.

In one assay the target is 3',5'-cyclic-AMP phosphodiesterase 4B (Homo sapiens) (UniProt Q07343). Description: Inhibition of PDE4B (unknown origin) expressed in HEK293 cells assessed as increase in forskolin-stimulated cAMP level preincubated for 30 mins followed by forskolin-stimulation measured after 4 hrs by luciferase reporter gene assay. The class given is functional, cell-based. For orientation: Cyclic AMP is a second messenger, typically raised through Gs and lowered through Gi signalling.
Sequence of 3',5'-cyclic-AMP phosphodiesterase 4B (Homo sapiens) (Q07343 whole entry): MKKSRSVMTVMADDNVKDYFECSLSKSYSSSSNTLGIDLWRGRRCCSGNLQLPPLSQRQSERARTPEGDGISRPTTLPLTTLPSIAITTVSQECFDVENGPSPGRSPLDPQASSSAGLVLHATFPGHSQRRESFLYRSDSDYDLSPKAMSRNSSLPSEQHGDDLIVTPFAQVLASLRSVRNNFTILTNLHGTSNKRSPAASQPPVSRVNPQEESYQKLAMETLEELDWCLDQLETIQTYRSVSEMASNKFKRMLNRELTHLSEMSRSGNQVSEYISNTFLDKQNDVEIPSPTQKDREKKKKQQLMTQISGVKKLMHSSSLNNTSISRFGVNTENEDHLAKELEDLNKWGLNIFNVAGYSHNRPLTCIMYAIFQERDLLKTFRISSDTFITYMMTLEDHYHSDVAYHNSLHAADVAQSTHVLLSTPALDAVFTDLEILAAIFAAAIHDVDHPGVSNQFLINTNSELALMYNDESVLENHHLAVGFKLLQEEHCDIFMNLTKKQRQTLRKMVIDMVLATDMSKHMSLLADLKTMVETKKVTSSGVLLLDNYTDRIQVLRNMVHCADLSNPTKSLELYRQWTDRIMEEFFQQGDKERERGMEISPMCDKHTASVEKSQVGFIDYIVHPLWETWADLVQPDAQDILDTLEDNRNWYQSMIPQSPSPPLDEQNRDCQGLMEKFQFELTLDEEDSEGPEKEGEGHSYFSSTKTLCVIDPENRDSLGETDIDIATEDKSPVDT
On to `CS(=O)(=O)n1c(COCCN2COc3ccccc3C2=O)cc2cc([N+](=O)[O-])ccc21`, for which the inhibition result is “Dose-dependent effect”.

Another assay has the same target. Description: Inhibition of PDE4B (unknown origin) expressed in HEK293 cells assessed as increase in forskolin-stimulated cAMP level at 30 uM preincubated for 30 mins followed by forskolin-stimulation measured after 4 hrs by luciferase reporter gene assay relative to control. Type of assay: functional, cell-based.
Take `CS(=O)(=O)n1c(COCCN2COc3ccccc3C2=O)cc2cc(F)ccc21`: the inhibition result was “Active”.

Consider `CS(=O)(=O)n1c(COCCN2COc3ccccc3C2=O)cc2cc(Cl)ccc21`, for which the inhibition result was “Active”. With `CS(=O)(=O)n1c(COCCN2COc3ccccc3C2=O)cc2cc(C(F)(F)F)ccc21`, the inhibition result was “Active”. Consider `CS(=O)(=O)n1c(COCCN2COc3ccccc3C2=O)cc2cc([N+](=O)[O-])ccc21`, for which the fold change (FC) is over 5. As to `CC(=O)c1ccc2c(c1)cc(COCCN1COc3ccccc3C1=O)n2S(C)(=O)=O`, the inhibition result was “inactive”. `COc1ccc(C2CNC(=O)C2)cc1OC1CCCC1` (centres undefined): the fold change (FC) was over 7. In the case of `O=C1c2ccccc2OCN1CCOCc1cc2ccccc2o1`, the inhibition entry was “Active”. As for `CS(=O)(=O)n1c(COCCN2COc3ccccc3C2=O)cc2cc(C#N)ccc21`, the inhibition entry was “Active”.
